# Laboratory results reported in patent publication US9006243B2, “HIV inhibiting 6-substituted pyrimidines” (Janssen R&D Ireland, priority 2006, dated 2015).
# Read-outs that look alike come from different tables or passages of the source.
# How the values were obtained:
# [1] = biological target: HIV strain MDR (L100I, K103N, Y181C, E138G, V179I, L2214F, V278V/I and A327A/V in HIV reverse transcriptase); assay: microbe, parasite or virus in culture; format: cell-based, HIV-1; conditions: for MDR pEC50 (−log EC50): MDR HIV strain (multiple RT mutations), MT4 LTR-EGFP cells, three days after infection; for EC50: Human immunodeficiency virus 1, 72 h, read-out: MDR pEC50 (−log EC50) (converted)
# From the text: (§1) Image analysis allows very sensitive detection of viral infection.
# “MDR” refers to a strain that contains mutations L100I, K103N, Y181C, E138G, V179I, L2214F, V278V/I and A327A/V in HIV reverse transcriptase.
# [2] = tested on: HIV strain L100I + K103N; assay: microbe, parasite or virus in culture; format: cell-based, HIV-1; conditions: for L100I + K103N pEC50 (−log EC50): HIV strain L100I + K103N, MT4 LTR-EGFP cells, three days after infection; for EC50: Human immunodeficiency virus 1, 72 h, read-out: L100I + K103N pEC50 (−log EC50) (converted)
# From the text: as §1
# [3] = tested on: HIV strain K103N + Y181C; assay: microbe, parasite or virus in culture; format: cell-based, HIV-1; conditions: for K103N + Y181C pEC50 (−log EC50): HIV strain K103N + Y181C, MT4 LTR-EGFP cells, three days after infection; for EC50: Human immunodeficiency virus 1, 72 h, read-out: K103N + Y181C pEC50 (−log EC50) (converted)
# From the text: as §1
# [4] = tested on: HIV strain Y181C; assay: microbe, parasite or virus in culture; format: cell-based, HIV-1; conditions: for Y181C pEC50 (−log EC50): HIV strain Y181C, MT4 LTR-EGFP cells, three days after infection; for EC50: Human immunodeficiency virus 1, 72 h, read-out: Y181C pEC50 (−log EC50) (converted)
# From the text: as §1
# [5] = tested on: HIV strain IIIB (wild type); assay: microbe, parasite or virus in culture; conditions: for EC50: Human immunodeficiency virus 1, IIIB, 72 h, read-out: IIIB pEC50 (−log EC50) (converted)
# Method: Compounds of the invention were tested for their potency against wild type virus and clinically isolated HIV strains harboring one or more mutations associated with resistance to reverse transcriptase inhibitors. Antiviral activity was evaluated using a cellular assay performed according to the following procedure.
# The human T-cell line MT4 was engineered with Green Fluorescent Protein (GFP) and a HIV-specific promoter, HIV-1 long terminal repeat (LTR). This cell line, designated MT4 LTR-EGFP, can be used for the in vitro evaluation of anti-HIV activity of investigational compounds. In HIV-1 infected cells, the Tat protein is produced, which upregulates the LTR promotor and eventually leads to stimulation of the GFP reporter production, allowing to measure ongoing HIV-infection fluorometrically.
# Analogously, MT4 cells were engineered with GFP and the constitutional cytomegalovirus (CMV) promotor. […] Cytotoxic investigational compounds reduce GFP levels of mock-infected MT4 CMV-EGFP cells.
# The ratio of CC50 to EC50 is defined as the selectivity index (SI) and is an indication of the selectivity of the anti-HIV activity of the inhibitor. The ultimate monitoring of HIV-1 infection and cytotoxicity was done using a scanning microscope. Image analysis allows very sensitive detection of viral infection. Measurements were done before cell necrosis, which usually takes place about five days after infection, in particular measurements were performed three days after infection.
# The columns IIIB, L100I, etc. in the table list the pEC50 (−log EC50) values against various strains IIIB, L100I, etc.; pSI lists the −log SI values.
# Strain IIIB is wild type HIV strain.
# [6] = wild type HIV strain IIIB, MT4 LTR-EGFP cells, GFP fluorescence, three days after infection
SMILES,MDR pEC50 (−log EC50) [1],L100I + K103N pEC50 (−log EC50) [2],K103N + Y181C pEC50 (−log EC50) [3],Y181C pEC50 (−log EC50) [4],IIIB pEC50 (−log EC50) [5],"IIIB pEC50 (−log EC50) [5, 6]",EC50 [1] [nM],EC50 [2] [nM],EC50 [3] [nM],EC50 [4] [nM],EC50 [5] [nM],melting point [°C]
Cc1cc(C=CC#N)cc(C)c1Nc1cc(CN2CCOCC2)nc(Nc2ccc(C#N)cc2)n1 (mixture of isomers) [Compound 12],5.57,6.50,6.78,7.28,8.62,,,,,,,
Cc1cc(C=CC#N)cc(C)c1Nc1cc(CNCC2CC2)nc(Nc2ccc(C#N)cc2)n1 (mixture of isomers) [Compound 14],5.67,7.00,7.76,7.85,,8.52,,,,,,
COCCNCc1cc(Nc2c(C)cc(C=CC#N)cc2C)nc(Nc2ccc(C#N)cc2)n1 (mixture of isomers) [Compound 15],5.55,7.42,7.86,7.89,,8.54,,,,,,
Cc1cc(C=CC#N)cc(C)c1Nc1cc(CNCC2COC(C)(C)O2)nc(Nc2ccc(C#N)cc2)n1 (mixture of isomers) [Compound 16],5.64,7.06,7.61,7.60,8.54,,,,,,,
Cc1cc(C=CC#N)cc(C)c1Nc1cc(CNCCc2ccc(S(N)(=O)=O)cc2)nc(Nc2ccc(C#N)cc2)n1 (mixture of isomers) [Compound 17],5.56,6.41,7.04,7.01,,7.80,,,,,,
CON(C)Cc1cc(Nc2c(C)cc(C=CC#N)cc2C)nc(Nc2ccc(C#N)cc2)n1 (mixture of isomers) [Compound 18],6.33,7.48,7.79,8.06,,9.05,,,,,,
Cc1cc(C=CC#N)cc(C)c1Nc1cc(Cn2ccnc2)nc(Nc2ccc(C#N)cc2)n1 (mixture of isomers) [Compound 19],5.32,6.83,6.97,7.68,,8.48,,,,,,
Cc1cc(C=CC#N)cc(C)c1Nc1cc(CNCCc2ccccn2)nc(Nc2ccc(C#N)cc2)n1 (mixture of isomers) [Compound 20],5.30,6.33,6.96,6.99,,8.46,,,,,,
CC(=O)NCCNCc1cc(Nc2c(C)cc(C=CC#N)cc2C)nc(Nc2ccc(C#N)cc2)n1 (mixture of isomers) [Compound 22],5.50,6.35,7.02,7.09,,7.93,,,,,,
COCC(C)NCc1cc(Nc2c(C)cc(C=CC#N)cc2C)nc(Nc2ccc(C#N)cc2)n1 (mixture of isomers) [Compound 23],5.67,6.98,7.78,7.72,,8.80,,,,,,
C=CCNCc1cc(Nc2c(C)cc(C=CC#N)cc2C)nc(Nc2ccc(C#N)cc2)n1 (mixture of isomers) [Compound 24],5.75,7.31,7.84,8.14,9.16,,,,,,,
Cc1cc(C=CC#N)cc(C)c1Nc1cc(CNCc2ccccn2)nc(Nc2ccc(C#N)cc2)n1 (mixture of isomers) [Compound 25],5.75,,7.30,7.03,,7.63,,,,,,
Cc1cc(C=CC#N)cc(C)c1Nc1cc(CNCc2ccco2)nc(Nc2ccc(C#N)cc2)n1 (mixture of isomers) [Compound 26],5.57,,8.07,7.62,,8.43,,,,,,
Cc1cc(C=CC#N)cc(C)c1Nc1cc(CNCC2CCCO2)nc(Nc2ccc(C#N)cc2)n1 (mixture of isomers) [Compound 28],5.68,7.27,7.82,7.81,,8.68,,,,,,
Cc1cc(C=CC#N)cc(C)c1Nc1cc(CNCCCN2CCOCC2)nc(Nc2ccc(C#N)cc2)n1 (mixture of isomers) [Compound 29],5.67,6.66,7.01,7.06,,7.70,,,,,,
Cc1cc(C=CC#N)cc(C)c1Nc1cc(CNCc2ccncc2)nc(Nc2ccc(C#N)cc2)n1 (mixture of isomers) [Compound 30],5.80,7.56,7.89,7.69,,8.55,,,,,,
Cc1cc(C=CC#N)cc(C)c1Nc1cc(CNCc2cccs2)nc(Nc2ccc(C#N)cc2)n1 (mixture of isomers) [Compound 31],5.48,7.13,7.71,7.48,,8.41,,,,,,
C=CCOCc1cc(Nc2c(C)cc(/C=C/C#N)cc2C)nc(Nc2ccc(C#N)cc2)n1 [Compound 2],4.95,7.12,7.15,7.74,,8.44,,,,,,
COc1ccccc1C(O)c1cc(Nc2c(C)cc(/C=C/C#N)cc2C)nc(Nc2ccc(C#N)cc2)n1 (stereo not shown) [Compound 3],,,,,,,2950,95.5,263,105,7.24,
COCCNC(=O)c1cc(Nc2c(C)cc(/C=C/C#N)cc2C)nc(Nc2ccc(C#N)cc2)n1 [Compound 4],,,,,,,2820,,10.2,13.8,3.09,130
Cc1cc(/C=C/C#N)cc(C)c1Nc1cc(C(=O)c2nccs2)nc(Nc2ccc(C#N)cc2)n1 [Compound 10],,,,,,,562,4.79,10.7,3.47,2.82,
Cc1cc(/C=C/C#N)cc(C)c1Nc1cc(CN2CCN(C)CC2)nc(Nc2ccc(C#N)cc2)n1 [Compound 13],5.59,7.20,7.68,7.79,,8.54,,,,,,
Cc1cc(C=CC#N)cc(C)c1Nc1cc(CN(C)CC#N)nc(Nc2ccc(C#N)cc2)n1 [Compound 21],5.70,7.16,7.71,7.73,,8.47,,,,,,
Cc1cc(/C=C/C#N)cc(C)c1Nc1cc(CNCc2cccnc2)nc(Nc2ccc(C#N)cc2)n1 [Compound 27],,,,,,,1170,,3.09,16.2,3.8,
CCOP(=O)(OCC)OCc1cc(Nc2c(C)cc(/C=C/C#N)cc2C)nc(Nc2ccc(C#N)cc2)n1 [Compound 32],6.40,7.20,7.50,7.60,,8.50,,,,,,
Cc1cc(/C=C/C#N)cc(C)c1Nc1cc(COC(N)=O)nc(Nc2ccc(C#N)cc2)n1 [Compound 33],6.20,7.10,8.00,7.70,,8.40,,,,,,
